We go through 16 molecules from PubChem BioAssay (NCI).

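Growth conditions: 96-well plates. Treatment: test compound, 48 hours, 5 concentrations. Analysis: linear interpolation between bracketing concentrations; unreached endpoints set to highest concentration. GI50 is the concentration that inhibits growth by half. TGI denotes the concentration required for complete inhibition of growth.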

Some test systems named below: NCI-H23 lung; SF-539 CNS; SW-620 colon; NCI-H460 lung; SN12C renal; UACC-62 melanoma; SR leukemia; SF-268 CNS; MALME-3M melanoma; HCC-2998 colon.
Holding throughout (assay): NCI-60 cell line screen, 48 h

As for `O=c1c2cccc3cccc(c4n1CCN=4)c32`, the TGI in the experiment on NCI-H23 lung, in the experiment on SF-539 CNS, in the experiment on SW-620 colon, in the experiment on NCI-H460 lung, in the experiment with SN12C renal and in the experiment on UACC-62 melanoma was greater than 100 µM each time. The values for the TGI in the experiment with SR leukemia, with SF-268 CNS and in the experiment with MALME-3M melanoma were 81.5 µM, greater than 100 µM and greater than 100 µM, respectively.

Consider `N#CCN/C=C\C(=O)c1ccc(Cl)cc1`, for which the GI50 with NCI-H23 lung was 32.9 µM; with SF-539 CNS it was 27 µM; in the experiment with SW-620 colon it was 37.8 µM; with NCI-H460 lung, 42.1 µM; in the experiment on SN12C renal, 39.3 µM; in the experiment with UACC-62 melanoma, 15.7 µM. The GI50 with SR leukemia was 11.5 µM; in the experiment with SF-268 CNS, 26.7 µM; with MALME-3M melanoma it was 17.9 µM. Further, the TGI with NCI-H23 lung was 86.2 µM; in the experiment on SF-539 CNS, 68.3 µM; with SW-620 colon it was greater than 100 µM; in the experiment on NCI-H460 lung it was greater than 100 µM; with SN12C renal it was greater than 100 µM; with UACC-62 melanoma, 49.3 µM. In addition, the TGI with SR leukemia was 44.1 µM; in the experiment on SF-268 CNS, greater than 100 µM; in the experiment on MALME-3M melanoma, 53.6 µM.

Consider `CNC(=O)Cc1nc(-c2cccc(NS(=O)(=O)c3c(F)cccc3F)c2F)c(-c2ccnc(Nc3ccccc3)n2)s1`, for which the GI50 was 4.42 µM with NCI-H23 lung; 10.9 µM in the experiment on SF-539 CNS; 9.54 µM in the experiment on SW-620 colon; 14.8 µM with NCI-H460 lung; 1.71 µM with SN12C renal; 7.94 µM with HCC-2998 colon. Moreover, the GI50 in the experiment with SR leukemia was 8.07 µM; in the experiment on SF-268 CNS it was 6.98 µM. For the same molecule, the TGI was greater than 50 µM in the experiment on NCI-H23 lung; greater than 50 µM in the experiment with SF-539 CNS; greater than 50 µM with SW-620 colon; greater than 50 µM in the experiment on NCI-H460 lung; greater than 50 µM in the experiment on SN12C renal; 28.1 µM in the experiment with HCC-2998 colon. The TGI with SR leukemia and with SF-268 CNS was greater than 50 µM each time.

Consider `COc1ccc(/C=N\Nc2ccc([N+](=O)[O-])cn2)cc1OC`, for which the GI50 was 53.2 µM in the experiment on NCI-H23 lung; 4.37 µM in the experiment with SF-539 CNS; greater than 100 µM in the experiment on SW-620 colon; greater than 100 µM with SN12C renal; greater than 100 µM in the experiment on HCC-2998 colon; greater than 100 µM with UACC-62 melanoma. Besides, the GI50 in the experiment on SR leukemia, in the experiment with SF-268 CNS and in the experiment on MALME-3M melanoma was greater than 100 µM each time. Moreover, the TGI in the experiment on NCI-H23 lung was greater than 100 µM; in the experiment with SF-539 CNS it was 23.4 µM; with SW-620 colon it was greater than 100 µM; with SN12C renal it was greater than 100 µM; in the experiment on HCC-2998 colon, greater than 100 µM; in the experiment with UACC-62 melanoma, greater than 100 µM. Moreover, the TGI with SR leukemia, with SF-268 CNS and in the experiment with MALME-3M melanoma was greater than 100 µM throughout.

With `O=c1c(Cl)c(Cl)c(=O)c2sc3cc(Cl)ccc3[nH]c1=2`, the TGI is greater than 100 µM in the experiment with NCI-H23 lung; greater than 100 µM in the experiment on SF-539 CNS; 52.1 µM with SW-620 colon; greater than 100 µM with NCI-H460 lung; greater than 100 µM in the experiment with UACC-62 melanoma; 21.5 µM in the experiment on SR leukemia. The TGI in the experiment on SF-268 CNS and with MALME-3M melanoma was greater than 100 µM throughout.

As for `CCOC(=O)C(C)(C)Oc1ccc(/C=C/C(=O)c2ccc(Cl)cc2)cc1`, the TGI with NCI-H23 lung is 37.1 µM; with SF-539 CNS it was 34 µM; with SW-620 colon, 28 µM; in the experiment on NCI-H460 lung, greater than 100 µM; with SN12C renal it was 36 µM; in the experiment on UACC-62 melanoma, 44 µM. Moreover, the TGI in the experiment on SR leukemia is greater than 100 µM; with SF-268 CNS it was 37.1 µM; with MALME-3M melanoma it was 34.6 µM.

For `COc1cc(CNc2ccccc2C(=O)N2CCN(C(=O)c3cc(-c4cc(OC)c(OC)c(OC)c4)n4nc(-c5ccccc5)cc4n3)CC2)cc(OC)c1OC`, the GI50 was 4.96 µM in the experiment on NCI-H23 lung; 2.54 µM in the experiment on SF-539 CNS; 3.67 µM with SW-620 colon; 3.32 µM in the experiment with NCI-H460 lung; 17 µM in the experiment on SN12C renal; 5.8 µM in the experiment with HCC-2998 colon. Moreover, the GI50 is 2.37 µM with UACC-62 melanoma, 0.581 µM with SR leukemia and 4.89 µM in the experiment with SF-268 CNS. Moreover, the TGI in the experiment on NCI-H23 lung, in the experiment with SF-539 CNS, in the experiment on SW-620 colon, with NCI-H460 lung, in the experiment on SN12C renal and with HCC-2998 colon was greater than 100 µM throughout. For the same molecule, the TGI in the experiment with UACC-62 melanoma, in the experiment on SR leukemia and in the experiment on SF-268 CNS was greater than 100 µM in each case.

Consider `Cc1cn2c(/C=N/N=C(N)N)c(-c3cccs3)nc2s1`, for which the GI50 was 11.7 µM with NCI-H23 lung; 1.6 µM in the experiment with SF-539 CNS; 1.71 µM in the experiment on SW-620 colon; 5.46 µM in the experiment with NCI-H460 lung; 0.161 µM in the experiment with SN12C renal; 1.77 µM with HCC-2998 colon. Also, the GI50 in the experiment with UACC-62 melanoma was 1.64 µM; in the experiment on SR leukemia, 2 µM; in the experiment on SF-268 CNS it was 12.9 µM. Further, the TGI worked out at 24 µM in the experiment with NCI-H23 lung; 3.12 µM in the experiment with SF-539 CNS; 4.02 µM in the experiment on SW-620 colon; 26.7 µM with NCI-H460 lung; 3.08 µM with SN12C renal; 3.24 µM in the experiment on HCC-2998 colon. Further, the TGI in the experiment on UACC-62 melanoma is 3.12 µM; in the experiment on SR leukemia, 3.99 µM; with SF-268 CNS, 36.6 µM.

Regarding `CC1(CCC(=O)OC2CCCCC2)OCCO1`, the TGI with NCI-H23 lung, in the experiment on SF-539 CNS, with SW-620 colon, in the experiment with NCI-H460 lung, in the experiment on SN12C renal and in the experiment with UACC-62 melanoma was greater than 100 µM each time. Moreover, the TGI in the experiment on SR leukemia, with SF-268 CNS and in the experiment on MALME-3M melanoma was greater than 100 µM each time.

On to `O=[N+]([O-])C1Cc2ccccc2OC1c1ccccc1` (stereo unspecified), for which the TGI in the experiment on NCI-H23 lung was greater than 100 µM; in the experiment with SF-539 CNS, 89.2 µM; with SW-620 colon, greater than 100 µM; with SN12C renal, 63 µM; in the experiment with HCC-2998 colon, greater than 100 µM; with UACC-62 melanoma, greater than 100 µM. The TGI is 66.6 µM in the experiment with SR leukemia, greater than 100 µM with SF-268 CNS and greater than 100 µM in the experiment with MALME-3M melanoma.

Turning to `CCn1c(-c2cc3ccccc3cc2O)nn(C(=O)c2c(Cl)cccc2Cl)c1=S`, the GI50 in the experiment with NCI-H23 lung is 20.3 µM; in the experiment with SF-539 CNS it was greater than 50 µM; in the experiment with SW-620 colon, 15.3 µM; in the experiment with NCI-H460 lung, greater than 50 µM; in the experiment with SN12C renal, 23.7 µM; in the experiment with UACC-62 melanoma it was 17.2 µM. For the same molecule, the GI50 was 17.6 µM with SR leukemia, greater than 50 µM in the experiment with SF-268 CNS and 30.8 µM in the experiment with MALME-3M melanoma. The TGI in the experiment with NCI-H23 lung, in the experiment on SF-539 CNS, with SW-620 colon, in the experiment on NCI-H460 lung, in the experiment with SN12C renal and with UACC-62 melanoma was greater than 50 µM in each case. The TGI in the experiment with SR leukemia, in the experiment with SF-268 CNS and with MALME-3M melanoma was greater than 50 µM throughout.

In the case of `Cc1cc(C)c(Cn2cnc3c(Cl)ncnc32)c(C)c1CCl`, the GI50 in the experiment with NCI-H23 lung is 90.7 µM; in the experiment on SF-539 CNS it was greater than 100 µM; in the experiment with SW-620 colon it was 92.7 µM; in the experiment with NCI-H460 lung it was 32.7 µM; in the experiment with SN12C renal, greater than 100 µM; with HCC-2998 colon, 19 µM. Further, the GI50 with UACC-62 melanoma was 61.3 µM; in the experiment with SR leukemia, 12.7 µM; in the experiment with SF-268 CNS, 79.7 µM. Also, the TGI in the experiment on NCI-H23 lung was greater than 100 µM; with SF-539 CNS it was greater than 100 µM; in the experiment on SW-620 colon, greater than 100 µM; with NCI-H460 lung, greater than 100 µM; in the experiment on SN12C renal, greater than 100 µM; in the experiment on HCC-2998 colon, 46.7 µM. For the same molecule, the TGI is greater than 100 µM with UACC-62 melanoma, 47.4 µM in the experiment on SR leukemia and greater than 100 µM in the experiment on SF-268 CNS.

Consider `SCCSCCCSCCS`, for which the TGI in the experiment on NCI-H23 lung, in the experiment on SF-539 CNS, in the experiment with SW-620 colon, in the experiment on NCI-H460 lung, in the experiment with SN12C renal and with HCC-2998 colon was greater than 100 µM each time. Moreover, the TGI with UACC-62 melanoma was greater than 100 µM; in the experiment on SR leukemia, 32.7 µM; in the experiment on SF-268 CNS, greater than 100 µM.

For the molecule `CN(Cc1cc(Cl)cc(Cl)c1)CC(C(=O)c1ccccc1)c1ccccc1` (stereo unspecified), the TGI with NCI-H23 lung is 7.06 µM; in the experiment on SF-539 CNS it was 23.2 µM; in the experiment on SW-620 colon, 2.92 µM; with NCI-H460 lung, greater than 100 µM; in the experiment with SN12C renal it was 16.3 µM; with UACC-62 melanoma it was 14.3 µM. The TGI is greater than 100 µM with SR leukemia, 68.6 µM in the experiment on SF-268 CNS and 24 µM in the experiment with MALME-3M melanoma.

Turning to `COc1ccc2nc3cc([N+](=O)[O-])ccc3c(NCCCN(C)C)c2c1`, the GI50 in the experiment on NCI-H23 lung was 0.17 µM; in the experiment with SF-539 CNS, 0.52 µM; with SW-620 colon, 0.067 µM; with NCI-H460 lung it was 0.0409 µM; with SN12C renal, 0.111 µM; with UACC-62 melanoma, 0.384 µM. Besides, the GI50 with SR leukemia is 0.0794 µM; in the experiment with SF-268 CNS, 0.295 µM; with MALME-3M melanoma, 0.287 µM. In addition, the TGI in the experiment on NCI-H23 lung was determined as 0.737 µM; in the experiment with SF-539 CNS, 3.19 µM; with SW-620 colon, 1.39 µM; in the experiment with NCI-H460 lung it was 1.5 µM; in the experiment on SN12C renal, 0.768 µM; with UACC-62 melanoma it was 1.64 µM. The values for the TGI in the experiment on SF-268 CNS and in the experiment with MALME-3M melanoma were 1.74 µM and 0.878 µM, respectively.

Consider `Cc1cc(=O)oc2c(C)c(OCCCOc3ccc4c(C)cc(=O)oc4c3C)ccc12`, for which the TGI in the experiment on NCI-H23 lung, in the experiment with SF-539 CNS, in the experiment on SW-620 colon, in the experiment with NCI-H460 lung, in the experiment on UACC-62 melanoma and with SR leukemia was greater than 100 µM each time. Further, the TGI with SF-268 CNS and in the experiment on MALME-3M melanoma was greater than 100 µM in each case.
